This is an account of results in publication PMC11769347, “Development of Novel Fluticasone/Salmeterol/Tiotropium-Loaded Dry Powder Inhaler and Bioequivalence Assessment to Commercial Products in Rats” (Pharmaceutics, 2025).

Assay type in all cases: physicochemical
The nature of series [1]: Particle size by laser diffraction (HELOS) after air jet milling. As for the experimental part: The drug was supplied into a jet mill at a rate of 10 g/min with injection air and grinding air pressures set at among 1–4 bars. The particle size of the micronized TB was measured using high-resolution laser diffraction spectroscopy (HELOS; Sympatec, Clausthal-Zellerfeld, Germany).

Series [2] is described as follows: Dissolution of fine particles less than 5 μm in simulated lung fluid. As to conditions: 37 °C, 75 rpm; for dissolved: within 15 min.
Description: To collect the fine particles less than 5 μm on a glass fiber filter, abbreviated ACI was used [17, 18]. The micronized FP/SX/TB blend was dispersed at a flow rate of 60 L/min, and 4.0 L of air was withdrawn. The glass fiber filter with collected fine particles was assembled into a filter holder (Copley Scientific, Nottingham, UK). […] The filter holder was placed in a dissolution vessel, and 500 mL of simulated lung fluid was used as dissolution media [19]. The dissolution media was maintained at a temperature of 37 ± 0.5 °C with an agitation speed of 75 rpm. At a predetermined time, 2 mL of the media was collected and diluted with 0.1 M HCl, edetate disodium dihydrate, and methanol to achieve a ratio of 900:50:0.075:50. The diluted solution was filtered through a 0.45 μm PVDC membrane filter and analyzed by HPLC as described in Section 2.5.
The nature of series [3]: Effect of capsule components on drug stability (degraded compounds by HPLC). The note with it: in various capsules, 60 °C for 2 weeks; % of the initial amount. As for the experimental part:
The effect of capsule components on the stability of FP, SX, or TB was investigated. The main materials and gelling agent of the capsule are described in Table 2. Each capsule was packed in an aluminum–aluminum blister and stored at 60 °C for 2 weeks. For comparison, commercial products are stored under the same conditions. Degraded compounds of FP, SX, or TB were analyzed as described in Section 2.5.
Degradation compounds of FP, SX, or TB were quantified using a high-performance liquid chromatography (HPLC) system (Hitachi, Tokyo, Japan) comprising a 5110 pump, 5430 detectors, a 5310 column oven, and 5210 autosamplers. While FP and SX were analyzed together, TB was assessed using a separate set of analytical conditions. Inertsil® ODS-2 column (4.6 mm × 250 mm, 5 μm) was used to analyze the degradation compounds of FP and SX. The powder, equivalent to 2.5 mg of FP and 0.725 mg of SX, was introduced into 5 mL of a mixture consisting of phosphoric acid, methanol, and distilled water in a ratio of 0.05:89.95:10. The mixture solution was vortexed for 30 min and passed through a 0.45 μm membrane filter. Fifty microliter aliquots of the filtered solution were injected and detected at 228 nm. […] Fifteen microliter aliquots of the sample solution were injected into the column at 50 °C and monitored at […] with a flow rate of 1.2 mL/min.

[4] abbreviates: powder without the air jet milling process (as from the manufacturer).

In the case of `OCc1cc(C(O)CNCCCCCCOCCCCc2ccccc2)ccc1O` (stereo not shown) [SX, salmeterol xinafoate], the particle size entry in series [1] (setting [4]) is “less than 5 μm”. For the same molecule, in series [2], the dissolved result is reported as “more than 85%”.

Take `CCC(=O)O[C@]1(C(=O)SCF)[C@H](C)C[C@H]2[C@@H]3C[C@H](F)C4=CC(=O)C=C[C@]4(C)[C@@]3(F)[C@@H](O)C[C@@]21C` [FP, fluticasone propionate]: in series [3], the “total degraded compound of FP” value is reported as “less than 0.7%”. Moreover, the particle size entry in series [1] (setting [4]) was “less than 5 μm”. Further, the maximum dissolution entry in series [2] is listed as “approximately 20%”.

Turning to `C[N+]1(C)[C@@H]2C[C@@H](OC(=O)C(O)(c3cccs3)c3cccs3)C[C@H]1[C@@H]1O[C@@H]12` [TB, tiotropium bromide], the particle size in series [1] (air jet mill condition I: injection air pressure 2 bar, grinding air pressure 1 bar) turned out to be 3.1 ± 0.3 μm; in series [1] (air jet mill condition II: injection air pressure 3 bar, grinding air pressure 2 bar) it was 2.5 ± 0.1 μm; in series [1] (air jet mill condition III: injection air pressure 4 bar, grinding air pressure 3 bar), 1.4 ± 0.3 μm; in series [1] (setting [4]), 6.1 ± 0.8 μm. For the same molecule, the dissolved entry in series [2] is “more than 85%”.
